From PubChem BioAssay (NCI)
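At the GI50, growth is halved. Definition used: TGI = concentration required for complete inhibition of growth.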

Tests used:
Assay in all cases: DTP human tumour cell line panel, 384-well format
A498 renal = test system: A498 renal
A549 NSCLC = test system: A549 NSCLC
ACHN renal = test system: ACHN renal
BT-549 breast = test system: BT-549 breast
CAKI-1 renal = test system: CAKI-1 renal
COLO 205 colon = test system: COLO 205 colon
DU-145 prostate = test system: DU-145 prostate
EKVX NSCLC = test system: EKVX NSCLC
HCC-2998 colon = test system: HCC-2998 colon
HCT-116 colon = test system: HCT-116 colon
HCT-15 colon = test system: HCT-15 colon
HL-60(TB) leukemia = test system: HL-60(TB) leukemia
HOP-62 NSCLC = test system: HOP-62 NSCLC
HOP-92 NSCLC = test system: HOP-92 NSCLC
HS 578T breast = test system: HS 578T breast
HT29 colon = test system: HT29 colon
IGROV1 ovarian = test system: IGROV1 ovarian
KM12 colon = test system: KM12 colon
LOX IMVI melanoma = test system: LOX IMVI melanoma
M14 melanoma = test system: M14 melanoma
MALME-3M melanoma = test system: MALME-3M melanoma
MCF7 breast = test system: MCF7 breast
MDA-MB-231 breast = test system: MDA-MB-231 breast
MDA-MB-435 melanoma = test system: MDA-MB-435 melanoma
MDA-MB-468 breast = test system: MDA-MB-468 breast
MOLT-4 leukemia = test system: MOLT-4 leukemia
NCI-H226 lung = test system: NCI-H226 lung

SMILES: CN(C)Cc1c(C(=O)NCCOc2ccc(C(=O)NO)cc2)oc2ccccc12
- GI50 (A498 renal): 0.187 µM
- TGI (A498 renal): 0.658 µM
- GI50 (A549 NSCLC): 0.313 µM
- TGI (A549 NSCLC): 1.24 µM
- GI50 (ACHN renal): 0.221 µM
- TGI (ACHN renal): 0.578 µM
- GI50 (BT-549 breast): 0.264 µM
- TGI (BT-549 breast): 1.35 µM
- GI50 (CAKI-1 renal): 0.316 µM
- TGI (CAKI-1 renal): 1.1 µM
- GI50 (COLO 205 colon): 0.158 µM
- TGI (COLO 205 colon): 0.319 µM
- GI50 (DU-145 prostate): 0.118 µM
- TGI (DU-145 prostate): 0.32 µM
- GI50 (EKVX NSCLC): 0.403 µM
- TGI (EKVX NSCLC): 3.11 µM
- GI50 (HCC-2998 colon): 0.109 µM
- TGI (HCC-2998 colon): 0.362 µM
- GI50 (HCT-116 colon): 0.0923 µM
- TGI (HCT-116 colon): 0.479 µM
- GI50 (HCT-15 colon): 0.48 µM
- TGI (HCT-15 colon): 2.01 µM
- GI50 (HL-60(TB) leukemia): 0.0569 µM
- TGI (HL-60(TB) leukemia): 0.148 µM
- GI50 (HOP-62 NSCLC): 0.17 µM
- TGI (HOP-62 NSCLC): 0.69 µM
- GI50 (HOP-92 NSCLC): 0.31 µM
- TGI (HOP-92 NSCLC): 1.33 µM
- GI50 (HS 578T breast): 0.145 µM
- TGI (HS 578T breast): 0.385 µM
- GI50 (HT29 colon): 0.219 µM
- TGI (HT29 colon): 0.943 µM
- GI50 (IGROV1 ovarian): 0.111 µM
- TGI (IGROV1 ovarian): 0.324 µM
- GI50 (KM12 colon): 0.311 µM
- TGI (KM12 colon): 1.7 µM
- GI50 (LOX IMVI melanoma): 0.17 µM
- TGI (LOX IMVI melanoma): 0.32 µM
- GI50 (M14 melanoma): 0.25 µM
- TGI (M14 melanoma): 1.08 µM
- GI50 (MALME-3M melanoma): 0.0876 µM
- TGI (MALME-3M melanoma): 0.33 µM
- GI50 (MCF7 breast): 0.133 µM
- TGI (MCF7 breast): 0.51 µM
- GI50 (MDA-MB-231 breast): 0.248 µM
- TGI (MDA-MB-231 breast): 0.811 µM
- GI50 (MDA-MB-435 melanoma): 0.201 µM
- TGI (MDA-MB-435 melanoma): 0.401 µM
- GI50 (MDA-MB-468 breast): 0.13 µM
- TGI (MDA-MB-468 breast): 0.457 µM
- GI50 (MOLT-4 leukemia): 0.0422 µM
- TGI (MOLT-4 leukemia): 0.143 µM
- GI50 (NCI-H226 lung): 0.376 µM
- TGI (NCI-H226 lung): 1.6 µM
